Laboratory results taken from patent US20120196824A1, “THERAPEUTIC AGENT FOR CEREBRAL INFARCTION” (MITSUBISHI TANABE PHARMA CORPORATION, priority 2009, published 2012).
Counter-ions that a name gives are not always drawn.

Target: T1, Human-recombinant-S-Adenosyl-L-Homocysteine Hydrolase (Homo sapiens, UniProt P23526)
T1 construct: purchased Diazyme Laboratories
Test: Measurement of enzyme inhibitory activity (hydrolysis of S-Adenosyl-L-Homocysteine, HPLC)
Format: biochemical
Conditions: S-Adenosyl-L-Homocysteine 10 μM, pH 7.2, 37° C., 15 min
Procedure: The enzyme inhibitory activity of the compounds of the Examples was measured using the hydrolysis activity of S-Adenosyl-L-Homocysteine as an index. The measurement method was modification of the method of Henry H. Richards et al. (J. Biol. Chem. 253, 4476-4480, 1978). That is, S-Adenosyl-L-Homocysteine (10 μM) and Adenosine Deaminase (Roche) (4 units) were added to 50 mM phosphate buffer (pH 7.2, containing 1 mM EDTA) with the total amount being 200 μl, and to the solution were added a test substance and then Human-recombinant-S-Adenosyl-L-Homocysteine Hydrolase (50 ng, Diazyme Laboratories) to start the reaction, and the mixture was incubated at 37° C. for 15 min. The reaction was quenched by the addition of 1N aqueous perchloric solution (20 μl), and the mixture was centrifuged under the conditions of 10000 rpm, 5 min, 4° C. The supernatant was collected, and the amount of S-Adenosyl-L-Homocysteine after the reaction was quantified by HPLC. The column used was a reversed-phase column. The detailed conditions of HPLC were as follows.
column used: Wakopak^R HandyODS 150*4.6 mm (Wako Pure Chemical Industries, Ltd.) elution condition: 1.0 ml/min elution solvent: 0.1M acetate buffer (pH 4.0) containing 10 mM 1-heptanesulfonic acid containing 4% acetonitrile wavelength: 258 nm (UV) The inhibitory rate was determined with the amount of decrease in S-Adenosyl-L-Homocysteine before and after the reaction without using the test substance as 100%.
Inhibitory rate (%)={(amount of decrease of S-Adenosyl-L-Homocysteine in the presence of test substance)/(amount of decrease of S-Adenosyl-L-Homocysteine in the absence of test substance)}×100

T1 sequence (P23526 whole entry): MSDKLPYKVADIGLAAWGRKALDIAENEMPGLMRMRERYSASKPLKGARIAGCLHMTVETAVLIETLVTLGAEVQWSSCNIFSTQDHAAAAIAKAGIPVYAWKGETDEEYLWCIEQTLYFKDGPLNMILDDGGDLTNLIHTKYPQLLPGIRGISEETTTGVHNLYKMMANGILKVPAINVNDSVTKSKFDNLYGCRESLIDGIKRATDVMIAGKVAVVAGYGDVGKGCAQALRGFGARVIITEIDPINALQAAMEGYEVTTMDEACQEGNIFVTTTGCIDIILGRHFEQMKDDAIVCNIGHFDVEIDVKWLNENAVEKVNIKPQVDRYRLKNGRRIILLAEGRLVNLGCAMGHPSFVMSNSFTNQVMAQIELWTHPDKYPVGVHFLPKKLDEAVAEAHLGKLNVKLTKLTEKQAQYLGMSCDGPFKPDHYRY

With CCNCCNC(=O)CN(CC(=O)N(C)N1Cc2ccccc2C1)c1cc2c(cc1C)N(CC)C(=O)CC2 [Example 177, N^2-{2-[1,3-dihydro-2H-isoindol-2-yl(methyl)amino]-2-oxoethyl}-N^2-(1-ethyl-7-methyl-2-oxo-1,2,3,4-tetrahydroquinolin-6-yl)-N^1-[2-(ethylamino)ethyl]glycinamide] as the compound, how does the IC50 read?
Its IC50 is 46 nM.

For CCNCCNC(=O)CN(CC(=O)N(C)N1Cc2ccccc2C1)c1cc(-c2noc(C(F)(F)F)n2)ccc1C [Example 287, N^2-{2-[1,3-dihydro-2H-isoindol-2-yl(methyl)amino]-2-oxoethyl}-N^2-{2-methyl-5-[5-(trifluoromethyl)-1,2,4-oxadiazol-3-yl]phenyl}-N^1-[2-(ethylamino)ethyl]glycinamide dihydrochloride], which IC50 is on record?
Its IC50 is 58 nM.

How did the IC50 turn out when CCNCCNC(=O)CN(CC(=O)N(C)C1Cc2ccccc2C1)c1cc(-c2noc(C)n2)ccc1C [Example 26, N^2-{2-[2,3-dihydro-1H-inden-2-yl(methyl)amino]-2-oxoethyl}-N^2-[2-methyl-5-(5-methyl-1,2,4-oxadiazol-3-yl)phenyl]-N^1-[2-(ethylamino)ethyl]glycinamide] was run?
Its IC50 is 56 nM.

CCNCCNC(=O)CN(CC(=O)N(C)N1Cc2ccc(F)cc2C1)c1ccc(C(C)=O)cc1C [Example 211, N^2-(4-acetyl-2-methylphenyl)-N^2-{2-[(5-fluoro-1,3-dihydro-2H-isoindol-2-yl)(methyl)amino]-2-oxoethyl}-N^1-[2-(ethylamino)ethyl]glycinamide] was tested. Which IC50 did it give?
The IC50 was 51 nM.

With CCNCCNC(=O)CN(CC(=O)N(C)N1Cc2ccccc2C1)c1cc2c(cc1C)CCC2=O [Example 214, N^2-{2-[1,3-dihydro-2H-isoindol-2-yl(methyl)amino]-2-oxoethyl}-N^2-(6-methyl-3-oxo-2,3-dihydro-1H-inden-5-yl)-N^1-[2-(ethylamino)ethyl]glycinamide] as the compound, how does the IC50 read?
Its IC50 is 23 nM.

How did the IC50 turn out when CCNCCNC(=O)CN(CC(=O)N(C)N1Cc2ccccc2C1)c1cc2cn(C)nc2cc1C [Example 243, N^2-{2-[1,3-dihydro-2H-isoindol-2-yl(methyl)amino]-2-oxoethyl}-N^2-(2,6-dimethyl-2H-indazol-5-yl)-N^1-[2-(ethylamino)ethyl]glycinamide hydrochloride] was run?
Its IC50 is 7 nM.

Which IC50 does the source give for CCNCCNC(=O)CN(CC(=O)N(C)N1Cc2ccc(F)cc2C1)c1cc(-c2nc(C)no2)ccc1C [Example 87, N^2-{2-[(5-fluoro-1,3-dihydro-2H-isoindol-2-yl)(methyl)amino]-2-oxoethyl}-N^2-[2-methyl-5-(3-methyl-1,2,4-oxadiazol-5-yl)phenyl]-N^1-[2-(ethylamino)ethyl]glycinamide] here?
Its IC50 is 18 nM.

With CCNCCNC(=O)CN(CC(=O)N(C)N1Cc2ccc(F)cc2C1)c1ccc(-c2nc(C(N)=O)cs2)cc1C [Example 308, N^2-{4-[4-(aminocarbonyl)-1,3-thiazol-2-yl]-2-methylphenyl}-N^2-{2-[(5-fluoro-1,3-dihydro-2H-isoindol-2-yl)(methyl)amino]-2-oxoethyl}-N^1-[2-(ethylamino)ethyl]glycinamide dihydrochloride] as the compound, how does the IC50 read?
The IC50 was 26 nM.

CCNCCNC(=O)CN(CC(=O)N(C)N1Cc2ccccc2C1)c1ccc(N2CCCC2=O)cc1C [Example 298, N^2-{2-[1,3-dihydro-2H-isoindol-2-yl(methyl)amino]-2-oxoethyl}-N^2-[2-methyl-4-(2-oxopyrrolidin-1-yl)phenyl]-N^1-[2-(ethylamino)ethyl]glycinamide dihydrochloride] was tested. Which IC50 did it give?
The IC50 was 50 nM.

CCNCCNC(=O)CN(CC(=O)N(C)N1Cc2ccccc2C1)c1ccc(-n2cc(C(N)=O)cn2)cc1C [Example 303, N^2-{4-[4-(aminocarbonyl)-1H-pyrazol-1-yl]-2-methylphenyl}-N^2-{2-[1,3-dihydro-2H-isoindol-2-yl(methyl)amino]-2-oxoethyl}-N^1-[2-(ethylamino)ethyl]glycinamide dihydrochloride] was tested. Which IC50 did it give?
Its IC50 is 41 nM.

Which IC50 does the source give for Cc1nc(-c2ccc(C)c(N(CC(=O)NCCNC(C)C)CC(=O)N(C)N3Cc4ccccc4C3)c2)no1 [Example 15, N^2-{2-[1,3-dihydro-2H-isoindol-2-yl(methyl)amino]-2-oxoethyl}-N^2-[2-methyl-5-(5-methyl-1,2,4-oxadiazol-3-yl)phenyl]-N^1-[2-(isopropylamino)ethyl]glycinamide] here?
Its IC50 is 17 nM.

Which IC50 does the source give for CCNCCNC(=O)CN(CC(=O)N(C)N1Cc2ccccc2C1)c1cc(-c2ncccn2)ccc1C [Example 129, N^2-{2-[1,3-dihydro-2H-isoindol-2-yl(methyl)amino]-2-oxoethyl}-N^2-(2-methyl-5-pyrimidin-2-ylphenyl)-N^1-[2-(ethylamino)ethyl]glycinamide] here?
Its IC50 is 10 nM.

Which IC50 does the source give for Cc1cc2c(cnn2C)cc1N(CC(=O)NCCNC(C)C)CC(=O)N(C)N1Cc2ccccc2C1 [Example 242, N^2-{2-[1,3-dihydro-2H-isoindol-2-yl(methyl)amino]-2-oxoethyl}-N^2-(1,6-dimethyl-1H-indazol-5-yl)-N^1-[2-(isopropylamino)ethyl]glycinamide hydrochloride] here?
Its IC50 is 6 nM.

Which IC50 does the source give for CCNCCNC(=O)CN(CC(=O)N(C)N1Cc2cccc(F)c2C1)c1cc(-c2noc(C)n2)ccc1C [Example 19, N^2-{2-[(4-fluoro-1,3-dihydro-2H-isoindol-2-yl)(methyl)amino]-2-oxoethyl}-N^2-[2-methyl-5-(5-methyl-1,2,4-oxadiazol-3-yl)phenyl]-N^1-[2-(ethylamino)ethyl]glycinamide] here?
Its IC50 is 33 nM.

With CCNCCNC(=O)CN(CC(=O)N(C)N1Cc2ccccc2C1)c1ccc(-c2noc(C(F)(F)F)n2)cc1C [Example 289, N^2-{2-[1,3-dihydro-2H-isoindol-2-yl(methyl)amino]-2-oxoethyl}-N^2-{2-methyl-4-[5-(trifluoromethyl)-1,2,4-oxadiazol-3-yl]phenyl}-N^1-[2-(ethylamino)ethyl]glycinamide dihydrochloride] as the compound, how does the IC50 read?
The IC50 was 76 nM.

Which IC50 does the source give for CCNCCNC(=O)CN(CC(=O)N(C)N1Cc2ccccc2C1)c1cc(C(C)=O)ccc1C [Example 57, N^2-(5-acetyl-2-methylphenyl)-N^2-{2-[1,3-dihydro-2H-isoindol-2-yl(methyl)amino]-2-oxoethyl}-N^1-[2-(ethylamino)ethyl]glycinamide] here?
The IC50 was 42 nM.

For CCNCCNC(=O)CN(CC(=O)N(C)N1Cc2cccc(F)c2C1)c1cc2c(cc1C)CCC2=O [Example 216, N^2-{2-[(4-fluoro-1,3-dihydro-2H-isoindol-2-yl)(methyl)amino]-2-oxoethyl}-N^2-(6-methyl-3-oxo-2,3-dihydro-1H-inden-5-yl)-N^1-[2-(ethylamino)ethyl]glycinamide], which IC50 is on record?
Its IC50 is 33 nM.

Cc1noc(-c2ccc(C)c(N(CC(=O)NCCNC(C)C)CC(=O)N(C)N3Cc4ccccc4C3)c2)n1 [Example 84, N^2-{2-[1,3-dihydro-2H-isoindol-2-yl(methyl)amino]-2-oxoethyl}-N^2-[2-methyl-5-(3-methyl-1,2,4-oxadiazol-5-yl)phenyl]-N^1-[2-(isopropylamino)ethyl]glycinamide] was tested. Which IC50 did it give?
The IC50 was 34 nM.

Which IC50 does the source give for CCNCCNC(=O)CN(CC(=O)N(C)N1Cc2ccc(F)cc2C1)c1ccc(-c2nc(C)no2)cc1C [Example 231, N^2-{2-[(5-fluoro-1,3-dihydro-2H-isoindol-2-yl)(methyl)amino]-2-oxoethyl}-N^2-[2-methyl-4-(3-methyl-1,2,4-oxadiazol-5-yl)phenyl]-N^1-[2-(ethylamino)ethyl]glycinamide] here?
Its IC50 is 46 nM.
